Like-named read-outs stand apart in the source and are kept apart here.
Columns and labels:
[1] = system: male long tailed mealybugs (P. longispinus); experiment: Field bioassay of the pheromone enantiomers and the racemate (delta sticky traps); assay type: in vivo, Pseudococcus longispinus; conditions: for attractiveness to male mealybugs (trap catches): traps 6 d + 11 d
Procedure: FIG. 1 depicts Male long tailed mealybugs caught in traps baited with each of the enantiomers of the pheromone, and the racemate. No mealybugs were caught in solvent treated controls.
(The field trials on vineyards were conducted with the help of Prof. Jocelyn Millar, University of California, Riverside, USA)
A field bioassay of the pheromone was conducted at a nursery in Bonsall, Calif., USA, in a 0.49 ha plot of Ruscus hypoglossum L. (plot coordinates: 33°17′18.36″ N, 117°16′55.61″ W elev 113 m) that was known to be infested with P. longispinus. The plot was divided into seven hoop houses (63 m long×7 m wide), six of which were used in this study. Each house (block) was covered in plastic with open ends. Airflow between houses was not restricted because the plastic cover began 1 m above the plant canopy. Four delta sticky traps were spaced every 12.5 m along a transect within each house, suspended directly above the ruscus canopy. Each trap contained an 11 mm gray rubber septum impregnated with a hexane solution of one of four treatments: solvent control, 5 μg of (S)-(+)-enantiomer, 5 μg of (R)-(−)-enantiomer, 10 μg of the racemate. Treatments were assigned randomly along each transect. Traps were replaced, and treatments were repositioned once after 6 d. Traps remained in place for another 11 d. Trap count data were analyzed by analysis of variance after √(x+0.5) transformation of the data to meet the assumptions of normality and equal variances. Differences among means were tested using Tukey's honestly significant differences (HSD) test. There was no significant interaction between the two sampling periods (date) and the treatments (F=3.23, df=2, 30, and P=0.054). Thus, data for each date were combined for the final analysis. There was both a significant effect of date (F=10.19, df=2, 32, P=0.0032) and treatment (F=130.04, df=2, 32, P<0.0001). Controls were not included in the analysis because their zero values and lack of variance violate the assumptions of ANOVA.

[2] = system: male mealybugs (long-tailed mealybug); conditions: 25 μg, field trials, cited from earlier work
[3] = 5 μg enantiomer on rubber septum in delta sticky trap, nursery plot of Ruscus hypoglossum

Row | SMILES | attractiveness to male mealybugs (trap catches) [1, 3] | attractiveness to male mealybugs (trap catches) ([1]; 5 μg enantiomer on rubber septum in delta sticky trap, nursery plot of Ruscus hypoglossum, listed as (+)1) | inhibitory effect of the enantiomer on attraction ([1]; inferred from racemate (10 μg) versus pure enantiomer (5 μg)) | attractiveness to male mealybugs and its duration ([2]; listed as racemic form of the pheromone) | attractiveness to male mealybugs and its duration ([2]; listed as racemic pheromone) | attractiveness to male mealybugs (trap catches) ([1]; 10 μg of the racemate on rubber septum in delta sticky trap)
1 | CC(=O)OCC[C@@]1(C)C=CCC1(C)C [(S)-(+)-enantiomer, (+) 2-(1,5,5-trimethylcyclopent-2-en-1-yl)ethyl acetate] | highly attractive | more activity than racemic pheromone |  |  |  | 
2 | CC(=O)OCC[C@]1(C)C=CCC1(C)C [(R)-(−)-enantiomer, (−) 2-(1,5,5-trimethylcyclopent-2-en-1-yl)ethyl acetate] | only slightly more attractive than solvent-treated controls |  | not inhibitory |  |  | 
3 | CC(=O)OCCC1(C)C=CCC1(C)C (racemic) [racemate (±1), 2-(1,5,5-trimethylcyclopent-2-en-1-yl) ethyl acetate] |  |  |  | sufficient to attract mealy bug for three months | highly attractive to male mealybugs for more than three months | as attractive as the pure enantiomer
